Results taken from US5011828A, “Immunostimulating guanine derivatives, compositions and methods” (priority 1988, dated 1991).
Values after ≈ are worked out from the molar mass of the structure shown.

How the values were obtained:
[1] = physchem; assay type: physicochemical, human
Text: Solubilities in urine could be expected to be lower than those for water due to the relatively higher salt content in urine than is found in water.
Each sample was filtered through a 5 micron pore-sized filter, diluted as necessary with the HPLC mobile phase, and then quantified by HPLC.

[2] = test system: human peripheral blood lymphocytes (sheep red blood cells as antigen); assay: Antigen-specific adjuvanticity: direct anti-SRBC plaque forming cells, human system; assay type: cell-based
Description: ^1 Studies were carried in a manner similar to those of Table 1,
except that a human lymphocyte preparation was used.
The results shown in Table 7, below, were obtained similarly to those discussed above, but using human lymphocytes. Some of those studies utilized lymphocytes from more than one individual, and are therefore reported with multiple entries.
Human peripheral blood lymphocytes (PBL) were prepared from normal heparinized venous blood by Ficoll-diatrizoate density gradient centrifugation. PBL were depleted of suppressor T cells bearing the histamine type 2 receptor by adhering them to the surfaces of histamine-rabbit serum albumin-coated plastic petri dishes (Cell-ect No. 2 kit; Seragen, Boston, Mass.) and by recovering the nonadherent cells by panning as described by Wysocki and Sato, Proc. Natl. Acad. Sci. USA, 75:2844 (1978) and modified by Cavagnaro and Osband, Biotechniques, January/February:30 (1983).
The tissue culture medium employed in these studies for human lymphocytes was prepared as follows: One hundred milliliters (ml) contained 87.9 ml RPMI 1640 (Flow Laboratories, Rockville, Md.), 0.1 ml 100×glutamine,1.0 ml of 1.0 M HEPES buffer (Microbilogical Associates, Betheseda, Md.), 1.0 ml of water containing 10^4 U of penicillin G and 10^4 micrograms of streptomycin, and 10 ml of fresh autologous heat-inactivatedplasma. For evaluation of the primary humoral immune response to SRBC, lymphoid cells prepared as above were cultured at a density of 2×10^6 /ml in a volume of 1.0 ml containing 5×10^6 SRBC as antigen (Colorado Serum Co., Denver, Colo.) together with IL-2 (a partially purified preparation of human IL-2 that was free of interferon-gamma activity was obtained from Electro-Nucleonics, Inc., Silver Spring, Md.) and the guanine nucleoside derivative.
(§1) Assay of plaque forming cells (PFC). PFC secreting antibodies against SRBC were evaluated after 4 or 5 days of culture using a modification of the hemolytic plaque assay of Jerne and Nordin, Science, 140:405 (1963). The cells were brought up in complete medium before plaquing; they were plaqued in standard low Mr agarose (Bio-Rad Laboratories, Richmond Calif.), and were incubated in SRBC-absorbed guinea pig complement for one hour after a 1.5 hour incubation without complement.

[3] = test system: CBA/CaJ thymocytes (irradiated BDF1 splenocyte stimulators); assay: T cell proliferation in mixed leukocyte cultures, CBA/CaJ thymocytes; assay type: cell-based, mouse; details: Study 4, responder +, stimulator +
Text: A third and fourth study utilized thymocytes from CBA/CaJ mice as the stimulated (responder) cells, and irradiated BDFl mouse spleen cells as the stimulator cells. Two guanosine derivatives of the present invention, 7a8MGuo and 7a8oGuo, were used for these studies, with 8MGuo serving as positive control for one of the studies.
However, in the presence of interleukin-2 (IL-2), those cells develop responsiveness to allogeneic stimulation. The present studies utilizing thymocytes were therefore carried out in the presence of a co-stimulating amount of IL-2.
^1 Plus signs (+) are utilized to indicate the presence of the
^3 Allogeneic cells used to costimulate proliferation, after exposure
T Helper Cell Activation. 1.5×10^5 viable spleen cells from SJL mice or CBA/CaJ mouse thymocytes were cultured with or without an equal number of irradiated (2500 rads) spleen cells from CBA/CaJ or BDFl mice respectively, in 0.2 ml of culture medium in the presence of incremental concentrations of the exemplary 7,8-disubstituted guanine derivatives. The lymphocyte culture medium utilized was that described before, and was further supplemented with 2-mercaptoethanol to a final concentration of 50 uM. Thymocyte cultures also contained 10 percent (v/v) of a concanavalin A-conditioned rat spleen cell medium sold under the name Rat T Cell Monoclone by Collaborative Research. Following 90 hours of culture, one microCurie [^3 H]TdR per culture was admixed, and the resulting culture was maintained for a further six hour time period.
The cultures were harvested with a Brandel cell harvester (M24V, Biological Research and Development Laboratories, Rockville, Md.) onto glass fiber filter disks. Filter disks were transferred to plastic scintillation vials, covered with liquid scintillation cocktail, and counted in a Beckman LS5700 liquid scintillation counter.

[4] = test system: CBA/N mouse spleen cells; assay: In vitro reconstitution of primary humoral immune response to SRBC, immunodeficient CBA/N spleen cells (FIG. 2); assay type: cell-based
Text: (§2) FIG. 2 is a graph that illustrates the in vitro reconstitution of the primary humoral immune response to a specific antigen, SRBC, in cultured immunodeficient CBA/N mouse spleen cells (dotted line) obtained by contacting those cells with an aqueous composition containing 7a8oGuo, in the further presence of SRBC. A similar study using spleen cells from immunocompetent CBA/CaJ mice (solid line) is also shown in the graph for comparison. The points on each line represent the PFC value obtained in the presence of the indicated amount of 7a8oGuo plus SRBC. The ordinate and abscissa are as in FIG. 1. Further details of this study are provided hereinafter.
(§3) Cultures of spleen cells from male and female homzygous CBA/N and male mice heterozygous for the CBA/N gene, called the xid gene, (male mice bear the X chromosome) was prepared as described in the Materials and Methods Section. 0.1 Milliters of a 0.1 percent (v/v) SRBC suspension alone or the SRBC suspension plus incremental amounts of 7a8oGuo were added to the cultures, using 5×10^6 cells/ml. Direct anti-SRBC […] per culture were assessed after 4 days of culture.

[5] = test system: murine spleen cells; assay: Mitogenicity: [3H]TdR uptake, murine system; assay type: cell-based, mouse; details: Table 4
Description: ^1 Mitogenicity measured by the uptake of [^3 H]TdR
(tritiumlabeled thymidine deoxyribonucleoside) as determined by measuring
counts per minute (cpm) per cell culture using the conditions discussed i

[6] = test system: murine lymphocytes (sheep red blood cells as antigen); assay: Antigen-specific adjuvanticity: direct anti-SRBC plaque forming cells, murine system; assay type: cell-based, mouse
Text: ^1 Adjuvanticities against sheep red blood cells [SRBC] measured in
direct plaqueforming cells per culture of lymphocytes from the mouse
strains shown. Details of the procedure are provided in the Materials and
Methods Section. Standard errors from the enumerated mean values are show
A large number of comparisons of adjuvanticity using human and murine lymphocytes as the source of leukocytes have been carried out using compounds of the present invention, as well as with new compounds excluded from the present invention. […] Interstudy comparisons are however useful for showing trends and large differences. Tables 5, 6 and 7, hereinafter, provide exemplary data from such studies in which only the activity at the peak concentration is shown for each compound and the results for the controls are omitted.
Lymphocyte cultures. The serum-containing culture medium water prepared to contain the following per 100 milliliters: 91.9 milliliters RPMI 1640 (Flow Laboratories, Inc., Rockville, Md.), 0.1 milliliters of 100×glutamine, 1.0 milliliter of 100×sodium pyruvate, 1 0 milliliter of 50×nonessential amino acids, 1.0 milliliter of water containing 10^4 units of penicillin G and 10^4 micrograms of streptomycin, and 5.0 milliliters of a supportive lot of fetal calf serum (FCS). These ingredients were admixed to apparent homogeneity. Spleen cell suspensions and populations enriched for splenic B cells were prepared as described in Goodman et al., J. Immunol., 121:1905 (1978).
For evaluation of the primary humoral immune response to sheep erythrocytes (SRBC), 5×10^6 to 10^7 murine spleen cells were cultured in 1.0 milliliter of 5% FCS-containing medium for 4 or 5 days in the presence and absence of immunogen. Cells were incubated in culture trays (Costar, Cambridge, Mass.) at 37° C. in a humidified atmosphere of 10% CO2 in air using tissue culture boxes (CBS Scientific, Del Mar, Calif.) that were rocked at a frequency of 7 cycles per minute. Pooled SRBC are available from the Colorado Serum Co., Denver Colo.
as §1

[7] = test system: CBA/CaJ mouse spleen cells; assay: Primary humoral response to SRBC, immunocompetent CBA/CaJ spleen cells (comparison in FIG. 2); assay type: cell-based
Text: as §2, §3
The results of this study comparing cells from CBA/N mice with a preparation of spleen cells from CBA/CaJ mice, are shown in FIG. 2.

C=CCn1c(=O)n([C@@H]2O[C@H](CO)[C@@H](O)[C@H]2O)c2nc(N)[nH]c(=O)c21 [7a8oGuo, 7-(2-Propenyl)-8-oxoguanosine]
solubility in human urine, in words [1]: about a three-fold greater solubility than did 7m8oGuo | solubility at 18 h ([1]; human, urine): 16.3 mg/mL (≈ 48 mM) | Peak Direct anti-SRBC PFC/Culture ([2]; Table 7, first group, person a): 3038 ± 288 PFC/Culture | Peak Direct anti-SRBC PFC/Culture ([2]; Table 7, first group, person b): 9250 ± 1010 PFC/Culture | Peak Direct anti-SRBC PFC/Culture ([2]; Table 7, first group, person c): 4831 ± 270 PFC/Culture | Peak Direct anti-SRBC PFC/Culture ([2]; Table 7, second group, person a): 477 PFC/Culture | Peak Direct anti-SRBC PFC/Culture ([2]; Table 7, second group, person b): 10,313 PFC/Culture | Peak Direct anti-SRBC PFC/Culture ([2]; Table 7, second group, person c): 4413 PFC/Culture | Average 1 Log Plaque Values ([2]; Table 9, human, * = single study): 22,640 ± 4187 per micromole | peak adjuvanticity values greater as compared to 7m8oGuo ([2]; human system (Table 3)): about 100% | [3H] TdR Uptake ([3]; 10^-4 M): 10,000 ± 800 counts per minute | [3H] TdR Uptake ([3]; 10^-5 M): 8000 ± 300 counts per minute | [3H] TdR Uptake ([3]; 10^-6 M): 8300 ± 300 counts per minute | concentration giving the similar PFC/culture values [4]: 30 µM | [3H] TdR Uptake ([5]; 3 × 10^-4 M): 59,150 ± 420 cpm/culture | [3H] TdR Uptake ([5]; 10^-3 M): 51,340 ± 1050 cpm/culture | [3H] TdR Uptake ([5]; 10^-4 M): 39,830 ± 780 cpm/culture | Peak Direct anti-SRBC PFC/Culture ([6]; Table 5, murine system, at peak concentration): 1827 PFC/Culture | Direct Anti-SRBC PFC/Culture ([6]; Table 8, 1 × 10^-5 M): 1387 PFC/Culture | Average 1 Log Plaque Values ([6]; Table 9, murine, * = single study): 98,237 ± 42,041 per micromole | concentration giving the similar PFC/culture values [7]: 10^-5 M
